In patent US9908868B2, “Isoindolinone compounds as GPR119 modulators for the treatment of diabetes, obesity, dyslipidemia and related disorders” (SANOFI, priority 2014, dated 2018):
pEC50: −log10 of the molar value.

What follows are molecules tested against T1, human GPR119 (Homo sapiens, UniProt Q8TDV5) (assay: Functional cellular assay measuring GPR119-mediated cAMP release (HTRF) in HEK-293 cells stably expressing recombinant human GPR119). Details: cAMP response, cell line expressing human GPR119, 30 minutes at room temperature.
T1 construct: expressed in transfected cells
T1 sequence (Q8TDV5 1-335): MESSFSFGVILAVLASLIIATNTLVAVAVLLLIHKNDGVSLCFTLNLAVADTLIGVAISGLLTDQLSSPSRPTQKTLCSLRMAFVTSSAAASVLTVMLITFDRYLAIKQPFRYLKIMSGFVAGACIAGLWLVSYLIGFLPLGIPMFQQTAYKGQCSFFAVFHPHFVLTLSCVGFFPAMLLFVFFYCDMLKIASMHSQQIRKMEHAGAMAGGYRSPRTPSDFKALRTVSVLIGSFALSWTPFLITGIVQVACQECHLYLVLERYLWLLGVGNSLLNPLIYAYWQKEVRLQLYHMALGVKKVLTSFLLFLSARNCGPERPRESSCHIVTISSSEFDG
Type: cell-based
Method in brief: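 HEK-293 cells stably expressing recombinant human GPR119, suspended at 400000 cells/mL in HBSS/20 mM HEPES/0.1% BSA/2 mM IBMX, exposed to compound for 30 minutes at room temperature. cAMP detected by HTRF (665/620 nm ratio) after 1 h with reagents in lysis buffer. EC50 taken as concentration giving 50% of maximal activation.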

pEC50	Structure (SMILES)
7.28	CN(C)C(=O)CN1Cc2ccc(N3CC[C@@H](Oc4ccc(C(=O)CCC(F)(F)F)cc4)C3=O)cc2C1=O [Example 2-66, N,N-dimethyl-2-[1-oxo-6-[(3R)-2-oxo-3-[4-(4,4,4-trifluorobutanoyl)phenoxy]pyrrolidin-1-yl]isoindolin-2-yl]acetamide]
6.79	NC(=O)CN1Cc2ccc(N3CC[C@@H](Oc4ccc(OCC5CC5)nc4)C3=O)cc2C1=O [Example 4-07, 2-[6-[(3R)-3-[[6-(cyclopropylmethoxy)-3-pyridyl]oxy]-2-oxo-pyrrolidin-1-yl]-1-oxo-isoindolin-2-yl]acetamide]
7.20	COC(=O)CN1Cc2ccc(N3CC[C@@H](Oc4ccc(OCCC5CC5)nc4)C3=O)cc2C1=O [Example 1-32, methyl 2-[6-[(3R)-3-[[6-(2-cyclopropylethoxy)-3-pyridyl]oxy]-2-oxo-pyrrolidin-1-yl]-1-oxo-isoindolin-2-yl]acetate]
6.33	CN(C)C(=O)CN1Cc2ccc(N3CC[C@@H](Oc4ccc(OC(F)(F)F)c(Cl)c4)C3=O)cc2C1=O [Example 2-41, 2-[6-[(3R)-3-[3-chloro-4-(trifluoromethoxy)phenoxy]-2-oxo-pyrrolidin-1-yl]-1-oxo-isoindolin-2-yl]-N,N-dimethyl-acetamide]
6.90	CN(C)C(=O)CN1Cc2ccc(N3CC[C@@H](Oc4ccc(C(=O)C5CC5(F)F)cc4)C3=O)cc2C1=O (stereo partly drawn) [Example 2-65, 2-[6-[(3R)-3-[4-(2,2-difluorocyclopropanecarbonyl)phenoxy]-2-oxo-pyrrolidin-1-yl]-1-oxo-isoindolin-2-yl]-N,N-dimethyl-acetamide]
6.91	C[S+]([O-])CN1Cc2ccc(N3CC[C@@H](Oc4ccc(OCC5CC5)nc4)C3=O)cc2C1=O (stereo partly drawn) [Example 1-52, 6-[(3R)-3-[[6-(cyclopropylmethoxy)-3-pyridyl]oxy]-2-oxo-pyrrolidin-1-yl]-2-(methylsulfinylmethyl)isoindolin-1-one]
5.68	CN(C)C(=O)CN1Cc2ccc(N3CC[C@@H](Oc4ccc(Cl)nc4)C3=O)cc2C1=O [Example 2-10, 2-[6-[(3R)-3-[(6-chloro-3-pyridyl)oxy]-2-oxo-pyrrolidin-1-yl]-1-oxo-isoindolin-2-yl]-N,N-dimethyl-acetamide]
6.44	CN(C)C(=O)CN1Cc2ncc(N3CC[C@@H](Oc4ccc(C(=O)CC5CC5)cc4)C3=O)cc2C1=O [Example 1-16, 2-[3-[(3R)-3-[4-(2-cyclopropylacetyl)phenoxy]-2-oxo-pyrrolidin-1-yl]-5-oxo-7H-pyrrolo[3,4-b]pyridin-6-yl]-N,N-dimethyl-acetamide]
6.83	C[S+]([O-])CN1Cc2ccc(N3CC[C@@H](Oc4ccc(C(=O)C5CC5)cc4)C3=O)cc2C1=O (stereo partly drawn) [Example 1-60, 6-[(3R)-3-[4-(cyclopropanecarbonyl)phenoxy]-2-oxo-pyrrolidin-1-yl]-2-(methylsulfinylmethyl)isoindolin-1-one]
7.27	CN(C)C(=O)CN1Cc2ccc(N3CC[C@@H](Oc4ccc(O[C@H]5C[C@@H]6C[C@@H]6C5)nc4)C3=O)cc2C1=O [Example 2-03, 2-[6-[(3R)-3-[[6-[[(1S,5R)-3-bicyclo[3.1.0]hexanyl]oxy]-3-pyridyl]oxy]-2-oxo-pyrrolidin-1-yl]-1-oxo-isoindolin-2-yl]-N,N-dimethyl-acetamide]
6.89	NC(=O)CN1Cc2ccc(N3CC[C@@H](Oc4ccc(C(=O)C5CC5)cc4)C3=O)cc2C1=O [Example 2-53, 2-[6-[(3R)-3-[4-(cyclopropanecarbonyl)phenoxy]-2-oxo-pyrrolidin-1-yl]-1-oxo-isoindolin-2-yl]acetamide]
6.47	CN(C)C(=O)CN1Cc2ccc(N3CC[C@@H](Oc4ccc(-c5csnn5)cc4)C3=O)cc2C1=O [Example 2-40, N,N-dimethyl-2-[1-oxo-6-[(3R)-2-oxo-3-[4-(thiadiazol-4-yl)phenoxy]pyrrolidin-1-yl]isoindolin-2-yl]acetamide]
6.50	COC(=O)CC1c2ccc(N3CC[C@@H](Oc4ccc(OCC5CC5)nc4)C3=O)cc2C(=O)N1C (stereo partly drawn) [Example 1-05, methyl 2-[5-[(3R)-3-[[6-(cyclopropylmethoxy)-3-pyridyl]oxy]-2-oxo-pyrrolidin-1-yl]-2-methyl-3-oxo-isoindolin-1-yl]acetate]
